Where a SMILES comes first, the peptide text is derived from it.
Key:
[1] = test system: perennial ryegrass (Lolium perenne) seeds; experiment: Petri dish root-inhibition bioassay on perennial ryegrass seeds; assay type: in vivo; conditions: for Root Length of Perennial Ryegrass Seedlings Expressed as a Percentage of the Control: average of 2 trials; for relative effectiveness among the five dipeptides: perennial ryegrass root inhibition
Description: Bioactive fractions of the eluate were identified with bioassays, then pooled and subjected to further purification steps. […] The dishes were sealed with parafilm and placed in a controlled environmental chamber. The light intensity in the growth chamber was 70 μmol m^-2 s^-1 at 25° C./15° C. day/night temperature with a 16 hr photoperiod. One ml of a given eluate fraction was applied to the filter paper in each petri dish. The study was conducted with seven replications for each eluate fraction. […] Louis, Mo. The fifth, Gln-Gln, was obtained from Bachem Bioscience Inc. The activity of each synthetically derived peptide was tested in seven replications on perennial ryegrass using the same bioassay technique described in Example 4 in the presence of increasing amounts of the dipeptides mixed with distilled water (Table V).

[2] = test system: creeping bentgrass (Agrostis palustris); experiment: Soil pot study of dipeptide bioactivity on creeping bentgrass; assay type: in vivo; conditions: for Mean root length of creeping bentgrass seedlings / Percentage of creeping bentgrass plants surviving: 21 days after treatment
Description: In a study designed to verify the bioactivity of the dipeptides on soil, Ala-Gln and Gly-Ala were applied to the surface of 56.3 cm^2 plastic pots filled with a Nicollet (fine, loamy, […], Aquic Hapludol soil. The two dipeptides were applied at 0 to 3552 mg/dm^2. […] The test specie was creeping bentgrass (Agrostis palustris).

[3] = 8 μg/cm^2 dipeptide on filter paper
[4] = 13 μg/cm^2 dipeptide on filter paper
[5] = 21 μg/cm^2 dipeptide on filter paper
[6] = 26 μg/cm^2 dipeptide on filter paper
[7] = 31 μg/cm^2 dipeptide on filter paper
[8] = 39 μg/cm^2 dipeptide on filter paper
[9] = 52 μg/cm^2 dipeptide on filter paper
[10] = concentrations of 1.8 g/dm^2 and above
[11] = much lower concentrations than 1.8 g/dm^2

Structure (SMILES)	Root Length of Perennial Ryegrass Seedlings Expressed as a Percentage of the Control [1, 3]	Root Length of Perennial Ryegrass Seedlings Expressed as a Percentage of the Control [1, 4]	Root Length of Perennial Ryegrass Seedlings Expressed as a Percentage of the Control [1, 5]	Root Length of Perennial Ryegrass Seedlings Expressed as a Percentage of the Control [1, 6]	Root Length of Perennial Ryegrass Seedlings Expressed as a Percentage of the Control [1, 7]	Root Length of Perennial Ryegrass Seedlings Expressed as a Percentage of the Control [1, 8]	Root Length of Perennial Ryegrass Seedlings Expressed as a Percentage of the Control [1, 9]	relative effectiveness among the five dipeptides [1]	Mean root length of creeping bentgrass seedlings ([2]; 89 mg/dm^2 on soil surface)	Percentage of creeping bentgrass plants surviving ([2]; 89 mg/dm^2 on soil surface)	Mean root length of creeping bentgrass seedlings ([2]; 178 mg/dm^2 on soil surface)	Percentage of creeping bentgrass plants surviving ([2]; 178 mg/dm^2 on soil surface)	Mean root length of creeping bentgrass seedlings ([2]; 355 mg/dm^2 on soil surface)	Percentage of creeping bentgrass plants surviving ([2]; 355 mg/dm^2 on soil surface)	Mean root length of creeping bentgrass seedlings ([2]; 710 mg/dm^2 on soil surface)	Percentage of creeping bentgrass plants surviving ([2]; 710 mg/dm^2 on soil surface)	Mean root length of creeping bentgrass seedlings ([2]; 1066 mg/dm^2 on soil surface)	Percentage of creeping bentgrass plants surviving ([2]; 1066 mg/dm^2 on soil surface)	Mean root length of creeping bentgrass seedlings ([2]; 1776 mg/dm^2 on soil surface)	Percentage of creeping bentgrass plants surviving ([2]; 1776 mg/dm^2 on soil surface)	further results
NC(=O)CC[C@H](NC(=O)[C@@H](N)CCC(N)=O)C(=O)O [Gln-Gln, glutaminyl-glutamine] (H-Gln-Gln-OH)	107%	89%	82%	63%	12%	3%	0%														
C[C@H](N)C(=O)N[C@@H](CC(N)=O)C(=O)O [Ala-Asn, alaninylasparagine] (H-Ala-Asn-OH)	101%	85%	63%	29%	2%	0%	0%	most effective													
C[C@H](N)C(=O)N[C@@H](CCC(N)=O)C(=O)O [Ala-Gln, alaninyl-glutamine] (H-Ala-Gln-OH)	83%	70%	49%	41%	4%	0%	0%		20 mm	100%	15 mm	40%	2 mm	30%	0 mm	25%	0 mm	5%	0 mm	0%	Mean root length of creeping bentgrass seedlings ([2]; 3552 mg/dm^2 on soil surface): 0 mm; Percentage of creeping bentgrass plants surviving ([2]; 3552 mg/dm^2 on soil surface): 0%; inhibition of emergence and establishment of creeping bentgrass [2, 10]: completely inhibit; inhibition of emergence and establishment of creeping bentgrass [2, 11]: partially effective
C[C@H](N)C(=O)N[C@@H](C)C(=O)O [Ala-Ala, alaninyl-alanine] (H-Ala-Ala-OH)	74%	44%	27%	5%	1%	2%	0%	most effective													
C[C@H](NC(=O)CN)C(=O)O [Gly-Ala, glycinyl-alanine] (H-Gly-Ala-OH)	95%	68%	29%	16%	9%	2%	0%		20 mm	105%	15 mm	40%	5 mm	30%	2 mm	25%	2 mm	25%	0 mm	0%	Mean root length of creeping bentgrass seedlings ([2]; 3552 mg/dm^2 on soil surface): 0 mm; Percentage of creeping bentgrass plants surviving ([2]; 3552 mg/dm^2 on soil surface): 0%; inhibition of emergence and establishment of creeping bentgrass [2, 10]: completely inhibit; inhibition of emergence and establishment of creeping bentgrass [2, 11]: partially effective
